# According to patent US5244923A, “Use of 2-(phenoxypropanolamino) ethoxphenoxy-acetic acid and its derivatives to inhibit gastrointestinal motility” (Imperial Chemical Industries PLC, priority 1990, dated 1993):
# Where a name gives a salt, the structure may show the parent alone.
# Molecular target: "atypical" β-adrenoceptors (Cavia porcellus, UniProt Q3HNP5)
# Assay: Relaxation of histamine-contracted guinea-pig ileum
# Settings: histamine 0.5 μM contraction, propranolol 5 μM, atropine 1 μM, phentolamine 3 μM present, read-out: EC30 (concentration of agonist producing a relaxation equivalent to 30% histamine inhibition)
# Sequence of "atypical" β-adrenoceptors (Q3HNP5 1-379): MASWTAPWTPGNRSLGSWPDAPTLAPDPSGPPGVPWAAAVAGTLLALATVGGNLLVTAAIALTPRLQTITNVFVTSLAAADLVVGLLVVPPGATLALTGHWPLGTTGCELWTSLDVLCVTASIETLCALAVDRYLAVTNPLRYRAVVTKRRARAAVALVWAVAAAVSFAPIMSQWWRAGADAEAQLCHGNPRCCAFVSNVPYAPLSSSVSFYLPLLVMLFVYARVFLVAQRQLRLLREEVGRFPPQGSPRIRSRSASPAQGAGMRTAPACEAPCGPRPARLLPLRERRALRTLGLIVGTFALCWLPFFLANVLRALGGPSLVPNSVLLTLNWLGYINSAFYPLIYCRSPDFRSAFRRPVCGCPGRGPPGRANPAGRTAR
smiles,measurement,value
COCCNC(=O)COc1ccc(OCCNC[C@H](O)COc2ccccc2)cc1 [(S)-4-[2-(2-hydroxy-3-phenoxypropylamino)ethoxy]-N-(2-methoxyethyl)phenoxyacetamide hydrochloride],EC30,940 ± 260 nM
